This is an account of results in ChEMBL document CHEMBL1201862, “PubChem BioAssay data set” (2004).

Active and inactive are the calls of the source.

One assay deals with Large T antigen (Simian virus 40, UniProt P03070). The assay is classed as functional, Betapolyomavirus macacae.
In assay [1] the target is Dual specificity tyrosine-phosphorylation-regulated kinase 1A (Rattus norvegicus, UniProt Q63470). The class given is biochemical, Homo sapiens.
Assay [2] concerns the target T1, Histone-lysine N-methyltransferase NSD2 (Homo sapiens, UniProt O96028).
T1 sequence (O96028 whole entry): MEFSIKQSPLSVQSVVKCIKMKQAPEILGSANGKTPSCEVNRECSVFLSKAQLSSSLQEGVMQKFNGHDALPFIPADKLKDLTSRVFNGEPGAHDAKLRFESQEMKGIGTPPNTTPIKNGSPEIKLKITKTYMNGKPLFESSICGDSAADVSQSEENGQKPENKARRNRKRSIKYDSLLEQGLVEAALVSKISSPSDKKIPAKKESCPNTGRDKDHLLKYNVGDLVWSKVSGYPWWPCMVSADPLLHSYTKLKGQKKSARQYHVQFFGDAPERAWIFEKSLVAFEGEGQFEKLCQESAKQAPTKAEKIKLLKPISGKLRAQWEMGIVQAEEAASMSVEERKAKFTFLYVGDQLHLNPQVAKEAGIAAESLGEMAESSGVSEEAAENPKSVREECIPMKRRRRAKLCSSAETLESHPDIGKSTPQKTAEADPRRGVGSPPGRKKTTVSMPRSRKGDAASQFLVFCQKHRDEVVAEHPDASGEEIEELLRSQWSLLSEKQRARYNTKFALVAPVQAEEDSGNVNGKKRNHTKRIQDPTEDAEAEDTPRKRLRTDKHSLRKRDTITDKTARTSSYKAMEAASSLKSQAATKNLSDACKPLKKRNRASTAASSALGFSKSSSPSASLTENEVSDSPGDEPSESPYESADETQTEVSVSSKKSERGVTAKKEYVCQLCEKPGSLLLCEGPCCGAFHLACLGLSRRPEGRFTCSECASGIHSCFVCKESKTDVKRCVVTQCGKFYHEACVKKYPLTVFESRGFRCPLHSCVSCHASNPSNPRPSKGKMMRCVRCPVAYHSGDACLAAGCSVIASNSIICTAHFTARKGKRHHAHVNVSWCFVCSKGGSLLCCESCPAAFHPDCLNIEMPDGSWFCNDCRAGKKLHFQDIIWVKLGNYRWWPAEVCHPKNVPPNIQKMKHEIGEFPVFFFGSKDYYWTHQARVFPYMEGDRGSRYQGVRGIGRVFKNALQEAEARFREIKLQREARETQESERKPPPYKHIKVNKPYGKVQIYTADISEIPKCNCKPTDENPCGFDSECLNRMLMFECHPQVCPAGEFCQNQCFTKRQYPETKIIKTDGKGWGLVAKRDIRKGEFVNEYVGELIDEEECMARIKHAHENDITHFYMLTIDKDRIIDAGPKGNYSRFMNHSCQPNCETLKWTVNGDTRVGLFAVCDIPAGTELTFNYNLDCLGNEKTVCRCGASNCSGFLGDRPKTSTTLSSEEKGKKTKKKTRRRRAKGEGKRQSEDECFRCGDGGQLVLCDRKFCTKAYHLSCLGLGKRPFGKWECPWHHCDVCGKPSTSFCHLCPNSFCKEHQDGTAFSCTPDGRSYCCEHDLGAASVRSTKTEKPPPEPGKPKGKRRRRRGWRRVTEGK
The class given is biochemical.

In a further assay the target is T2, Caspase-6 (Homo sapiens, UniProt P55212).
T2 sequence (P55212 whole entry): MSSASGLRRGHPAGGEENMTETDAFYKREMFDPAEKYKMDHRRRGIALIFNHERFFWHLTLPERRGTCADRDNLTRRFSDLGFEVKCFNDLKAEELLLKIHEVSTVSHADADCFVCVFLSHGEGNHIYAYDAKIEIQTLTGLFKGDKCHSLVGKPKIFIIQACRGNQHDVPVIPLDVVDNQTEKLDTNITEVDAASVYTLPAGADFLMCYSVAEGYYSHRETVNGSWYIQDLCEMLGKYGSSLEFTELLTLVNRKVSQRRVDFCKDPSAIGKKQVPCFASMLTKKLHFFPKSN
As to the kind of experiment: inhibition of CASP6 peptide cleavage – biochemical, VEID-R110 fluorescence, cherry-pick, dose response (AID 720632).

Assay [3] in a line: luciferase reporter signal suppression in cells – H4 neuroglioma cells, luminescence, dose response (AID 1990). The class given is functional, cell-based.
The nature of assay [4]: Luminescence Cell-Based Dose Response HTS to Identify Inhibitors of 5'UTR Stem-Loop Driven Prion Protein mRNA Translation in H4 Neuroglioblastoma Cells. [Related pubchem assays: 1827 (Project Summary), 1813 (Primary HTS)]. The class given is functional.
The target of another assay is Cytochrome P450 2D6 (Homo sapiens, UniProt P10635). As to the kind of experiment: qHTS Assay for Inhibitors and Substrates of Cytochrome P450 2D6. [Related pubchem assays: 410 ]. The class given is ADME. Conditions: read-out: Potency.
Sequence of Cytochrome P450 2D6 (P10635 whole entry): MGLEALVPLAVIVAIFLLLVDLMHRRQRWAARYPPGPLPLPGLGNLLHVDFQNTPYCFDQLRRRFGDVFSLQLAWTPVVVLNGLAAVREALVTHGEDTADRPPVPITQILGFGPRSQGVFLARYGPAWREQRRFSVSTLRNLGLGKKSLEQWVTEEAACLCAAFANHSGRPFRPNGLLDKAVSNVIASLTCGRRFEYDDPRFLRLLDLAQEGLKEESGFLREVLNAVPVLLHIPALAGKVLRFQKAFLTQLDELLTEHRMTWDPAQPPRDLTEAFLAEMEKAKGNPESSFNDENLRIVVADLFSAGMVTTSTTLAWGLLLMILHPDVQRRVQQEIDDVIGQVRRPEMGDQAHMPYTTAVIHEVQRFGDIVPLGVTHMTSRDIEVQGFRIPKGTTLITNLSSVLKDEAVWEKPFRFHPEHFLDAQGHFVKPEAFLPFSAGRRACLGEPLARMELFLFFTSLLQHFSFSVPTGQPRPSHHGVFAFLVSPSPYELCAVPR
The nature of assay [5]: alpha-synuclein stem-loop luciferase translation blockers – H4 neuroglioma cells, luminescence, confirmation (AID 1988). The assay is classed as functional, cell-based.
Assay [6] is described as follows: viability of uninfected HEp-2 cells – cell-based, HTS, cytotoxicity control for RSV inhibitor project, dose response (AID 2410). The assay is classed as functional. Conditions: human respiratory syncytial virus.
Assay [7] in a line: general mammalian cell viability loss – inhibitor set, cherry-pick, set 2, cytotoxicity control for miR-122 modulator project, dose response (AID 720697). The assay is classed as functional, cell-based.
Assay [8] concerns the target Luciferin 4-monooxygenase (Photinus pyralis, UniProt P08659). As to the kind of experiment: inhibition of purified Photinus pyralis luciferase – biochemical, luminescence, dose response (AID 1891).
Assay [9] is described as follows: Luminescence Cell-Based Dose Confirmation HTS to Identify Inhibitors of Platelet Dense Granule Release. [Related pubchem assays: 1663 (Primary HTS), 1678 (Summary of Project)]. The class given is functional.
Assay [10] deals with FAD-linked sulfhydryl oxidase ALR (Homo sapiens, UniProt P55789). As to the kind of experiment: ALR-catalysed DTT oxidation blockers – biochemical, H2O2 detection, luminescence, cherry-pick, dose response (AID 493248).
Sequence of FAD-linked sulfhydryl oxidase ALR (P55789 whole entry): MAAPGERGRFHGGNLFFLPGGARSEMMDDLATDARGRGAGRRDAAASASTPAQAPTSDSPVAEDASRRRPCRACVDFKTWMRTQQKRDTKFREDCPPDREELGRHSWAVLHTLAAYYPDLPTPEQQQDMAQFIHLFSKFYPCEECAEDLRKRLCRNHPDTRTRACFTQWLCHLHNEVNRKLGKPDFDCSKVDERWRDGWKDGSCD
In another assay the target is Cytochrome P450 3A4 (Homo sapiens, UniProt P08684). The conditions noted are these: Potency.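 Further: confirmatory qHTS run detecting inhibitors and substrates of CYP3A4.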
Sequence of Cytochrome P450 3A4 (P08684 whole entry): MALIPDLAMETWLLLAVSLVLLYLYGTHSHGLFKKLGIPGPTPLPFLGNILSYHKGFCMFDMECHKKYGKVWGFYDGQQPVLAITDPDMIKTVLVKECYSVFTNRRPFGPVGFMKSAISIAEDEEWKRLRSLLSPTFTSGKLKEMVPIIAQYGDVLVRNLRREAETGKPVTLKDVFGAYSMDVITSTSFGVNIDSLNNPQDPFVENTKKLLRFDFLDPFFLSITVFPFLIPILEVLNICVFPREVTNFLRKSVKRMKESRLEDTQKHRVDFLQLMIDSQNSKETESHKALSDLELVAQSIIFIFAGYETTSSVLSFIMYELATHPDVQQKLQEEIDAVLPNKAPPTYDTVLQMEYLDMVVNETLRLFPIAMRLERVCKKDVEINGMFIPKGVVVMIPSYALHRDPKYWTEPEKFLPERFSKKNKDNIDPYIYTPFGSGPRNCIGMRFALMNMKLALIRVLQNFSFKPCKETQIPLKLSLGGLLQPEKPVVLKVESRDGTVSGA

Sequence of Large T antigen (P03070 whole entry): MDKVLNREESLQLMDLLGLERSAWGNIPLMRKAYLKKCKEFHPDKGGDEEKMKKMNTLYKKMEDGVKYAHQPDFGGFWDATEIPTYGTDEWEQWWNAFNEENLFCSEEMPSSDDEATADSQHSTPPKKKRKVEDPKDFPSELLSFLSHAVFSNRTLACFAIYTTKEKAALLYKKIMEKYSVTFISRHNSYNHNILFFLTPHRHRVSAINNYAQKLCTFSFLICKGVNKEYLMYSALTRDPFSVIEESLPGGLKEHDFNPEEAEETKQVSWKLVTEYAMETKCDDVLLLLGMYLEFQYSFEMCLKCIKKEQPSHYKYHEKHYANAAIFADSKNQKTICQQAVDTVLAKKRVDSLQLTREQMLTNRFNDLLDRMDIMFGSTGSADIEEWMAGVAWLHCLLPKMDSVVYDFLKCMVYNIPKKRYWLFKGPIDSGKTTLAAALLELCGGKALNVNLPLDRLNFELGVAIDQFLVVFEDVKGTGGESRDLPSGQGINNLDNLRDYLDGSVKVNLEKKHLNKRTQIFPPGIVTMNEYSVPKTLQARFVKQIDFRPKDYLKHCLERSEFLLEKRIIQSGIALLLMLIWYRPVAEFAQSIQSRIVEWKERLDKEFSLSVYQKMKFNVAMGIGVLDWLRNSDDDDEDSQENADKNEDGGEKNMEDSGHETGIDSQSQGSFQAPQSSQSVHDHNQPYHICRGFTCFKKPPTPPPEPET
Sequence of Luciferin 4-monooxygenase (P08659 whole entry): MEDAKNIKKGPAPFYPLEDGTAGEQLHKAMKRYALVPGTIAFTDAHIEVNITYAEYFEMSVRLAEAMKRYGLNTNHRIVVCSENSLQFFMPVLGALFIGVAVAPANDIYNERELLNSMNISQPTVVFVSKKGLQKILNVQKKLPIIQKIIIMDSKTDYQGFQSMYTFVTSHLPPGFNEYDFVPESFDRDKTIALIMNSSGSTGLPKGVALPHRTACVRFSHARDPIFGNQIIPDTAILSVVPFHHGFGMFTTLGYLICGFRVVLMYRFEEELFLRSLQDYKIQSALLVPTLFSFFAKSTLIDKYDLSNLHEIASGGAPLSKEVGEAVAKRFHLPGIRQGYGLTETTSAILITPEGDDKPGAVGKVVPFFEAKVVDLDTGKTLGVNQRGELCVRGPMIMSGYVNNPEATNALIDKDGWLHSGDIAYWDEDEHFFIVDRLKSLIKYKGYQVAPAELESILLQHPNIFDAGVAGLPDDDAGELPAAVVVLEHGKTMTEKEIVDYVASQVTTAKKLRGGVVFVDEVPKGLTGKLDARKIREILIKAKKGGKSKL

As to `N#C/C(=C/c1ccc(O)c(O)c1)c1nc2ccccc2[nH]1`, the IC50 on Large T antigen is 12.3 µM (active). Further, the AC50 was 2.06 µM (active) in assay [1] and 2.05 µM (active) in assay [2].

Turning to `O=C(O)CCN1CC2([N+](=O)[O-])C=CC(=O)C([N+](=O)[O-])(C1)C2CC(=O)c1ccccc1` (stereo unspecified), the AC50 at Caspase-6 was 15.7 µM (active).

For `Cc1c(O)c(=O)ccn1Cc1ccccc1`, the 50% effective concentration (EC50) in assay [3] is 11.3 µM (active); in assay [4], 3.71 µM (active); in assay [5], > 120 µM (not active). In addition, the AC50 at Cytochrome P450 2D6 is 3.16 µM (inconclusive).

As to `CCn1cc(C(=O)NCc2cccc(F)c2)c(=O)c2cc(F)c(N3CCN(C(=O)c4ccco4)CC3)cc21`, in assay [6], the CC50 was > 50 µM (active). Also, in “cells”, the 50% inhibitory concentration (IC50) is 48.9 µM (active).

For the compound `COC(=O)c1cc(NS(=O)(=O)c2ccc3c(c2)CCC(=O)N3)cc(C(=O)OC)c1`, in assay [7], the AC50 is 3.3 µM (active).

As for `O=c1cc(-c2ccc(O)c(O)c2)oc2c(C3O[C@H](CO)[C@@H](O)[C@H](O)[C@H]3O)c(O)cc(O)c12` (stereo partly specified), the values for the IC50 on Large T antigen and in “cells” were 3.15 µM (active) and 18 µM (active), respectively.

For the compound `COc1ccc(OC)c(CNC(=O)c2coc(=O)c3ccccc23)c1`, the CC50 in [6] was 37.8 µM (active). The values for the EC50 in [8] and in [9] were > 112 µM (not active) and 19.5 µM (active), respectively. Also, in “cells”, the concentration for half-maximal inhibition (IC50) is 29.3 µM (active).

Regarding `CCCCCSc1cc(OC)c(CCNC)cc1OC`, the AC50 in assay [2] is 17.5 µM (active).

As for `OCC1(CCOc2ccccc2)CCN(Cc2cccn2-c2ncccn2)CC1`, the CC50 in assay [6] was > 50 µM (active). The IC50 in “cells” is 17.9 µM (active).

Take `Cc1ccc2[nH]c(-c3cccc(N)c3)cc2c1`: the cytotoxic concentration (CC50) in [6] is > 50 µM (active). For the same compound, the AC50 in [10] is 13.2 µM (active). In addition, the IC50 in the assay “cells” was 41.4 µM (active).

Consider `O=c1c(O)c(-c2cccc(O)c2)oc2ccccc12`, for which the AC50 at Cytochrome P450 2D6 is 25.1 µM (inconclusive).

As for `Cc1nc2ccccn2c(=O)c1CCN1CCC(C(=O)c2ccc(F)cc2)CC1` [PIRENPERONE], the AC50 is 7.94 µM (inconclusive) on Cytochrome P450 2D6 and 20 µM (inconclusive) at Cytochrome P450 3A4.
